This is an account of results in patent US5693620A, “Plasmalopsychosines and plasmalocerebrosides” (Oncomembrane, Inc., priority 1994, dated 1997).

Entries after “also recorded” stand apart in the source; their conditions may differ.

Series [1] can be described thus: Cytotoxicity and growth inhibition in neuroblastoma cell lines. Type of series: cell-based. The settings on record: various neuroblastoma cell lines; read-out: concentration at which cell growth was inhibited, morphology changed and cells eventually died.
Another series deals with neuroblastoma cell lines. The series is described as above. Particulars: various neuroblastoma cell lines. It counts as cell-based.
A short description of series [2]: Acid lability of glycolipids (aqueous HCl/methanol, TLC mobility). It counts as physicochemical. Particulars: methanol-aqueous 0.1N HCl 1:1, 90° C., 10 min. The method, then:
Acid-labile glycolipids were detected by hydrolysis of samples in methanol-aqueous 0.1N HCl (1:1, v/v) heated at 90° C. for 10 min, followed by Folch partitioning and TLC examination of lower phase. The glycolipid with high TLC mobility converting to the same mobility as normal cerebroside by this treatment was regarded as the acid-labile cerebroside.

Series [3] concerns mouse neuroblastoma Neuro-2A cells. Particulars: previously reported for a ganglioside effect; cited from earlier work.

`CCCCCCCCCCCCC/C=C/[C@@H](O)[C@@H](N)CO[C@@H]1O[C@H](CO)[C@H](O)[C@H](O)[C@H]1O` [psychosine, galactosylsphingosine]: the MCC in series [1] was in the range of 10 to 20 µg/mL. Besides, the “cytotoxic effect / growth inhibition (in words)” value in the series with neuroblastoma cell lines was “strong cytotoxic effect; also recorded: cytotoxic effects and inhibited cell growth even at very low doses”.

Consider `CCCCCCCCCCCCCCC[C@@H](O)C(=O)N[C@@H](CO[C@@H]1O[C@H](CO)[C@@H](O)[C@H](O)[C@H]1O)[C@H](O)/C=C/CC/C=C(\C)CCCCCCCCC` [Cerebroside], for which, in series [2], the “TLC mobility after acid hydrolysis” value was “did not show altered TLC mobility”.

Consider GT1b, for which the “concentration required for ganglioside effect on neurite formation” value in series [3] was 200 µg/mL.
